Laboratory results reported in BindingDB's records for doi:10.7270/Q26T0K2P (Nmmlsc, 2010).

Molecular target: T1, Regulator of G-protein signaling 19 (Homo sapiens, UniProt P49795)
T1 sequence (P49795 whole entry): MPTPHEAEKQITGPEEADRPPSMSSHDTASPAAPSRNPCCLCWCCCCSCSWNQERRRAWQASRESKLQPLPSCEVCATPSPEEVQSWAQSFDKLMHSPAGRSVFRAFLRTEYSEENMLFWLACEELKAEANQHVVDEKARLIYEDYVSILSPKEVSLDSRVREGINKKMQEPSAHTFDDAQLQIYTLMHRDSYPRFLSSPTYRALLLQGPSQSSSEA
Test: analogs regulating RGS19 interaction with Gαo – biochemical, SAR compounds, multiplexed bead flow cytometry, SAR follow-up (AID 2311)

- Ki: 100 nM
Compound: NS(=O)(=O)c1ccc(N=NCc2ccc(O)c(O)c2O)c([N+](=O)[O-])c1 [4-[[(E)-(2,3-dihydroxy-4-oxo-1-cyclohexa-2,5-dienylidene)methyl]hydrazo]-3-nitrobenzenesulfonamide]
